# Test results taken from ChEMBL document CHEMBL6083206, “SLL-1A-16 suppresses proliferation and induces autophagy in non-small-cell lung cancer cells via the AKT/mTOR signaling pathway” (RSC Med Chem, 2024).
# pIC50: −log10 of the molar value. Calls of active or inactive are those of the source. The rule behind the calls is not given here.
# Key:
# NCI-H460 [1] = assay: Inhibition of Akt/mTOR signalling pathway in human NCI-H460 cells assessed as decrease in c-myc expression by Western blot analysis; format: cell-based; conditions: dose 10-30 µM
# BGC-823 = assay: Antiproliferative activity against human BGC-823 cells assessed as inhibition of cell proliferation at 3 to 300 uM incubated for 48 hrs by CCK8 assay; format: functional, cell-based; conditions: dose 3-300 µM
# A549 [2] = assay: Inhibition of Akt/mTOR signaling pathway in human A549 cells assessed as decrease in phosphorylated 4EBP1 expression in presence of temsirolimus by Western blot analysis; format: cell-based
# NCI-H460 [3] = assay: Induction of apoptosis in human NCI-H460 cells assessed as early apoptotic cells at 30 uM incubated for 24 hrs by Annexin V-FITC/PI staining based flow cytometric analysis (reference value: 3.22 %); format: functional
# A549 [4] = assay: Induction of apoptosis in human A549 cells assessed as late apoptotic cells at 10 uM incubated for 24 hrs by Annexin V-FITC/PI staining based flow cytometric analysis (reference value: 2.29 %); format: functional
# A549 [5] = assay: Inhibition of Akt/mTOR signaling pathway in human A549 cells assessed as decrease in phosphorylated PRAS40 expression in presence of temsirolimus by Western blot analysis; format: cell-based
# A549 [6] = assay: Inhibition of Akt/mTOR signalling pathway in human A549 cells assessed as decrease in c-myc expression by Western blot analysis; format: cell-based; conditions: dose 10-30 µM
# NCI-H460 [7] = assay: Cell cycle arrest in human NCI-H460 cells assessed as downregulation of cyclin D1 expression at 10 to 30 uM by Western blot analysis; format: functional, cell-based; conditions: dose 10-30 µM
# A549 [8] = assay: Inhibition of Akt/mTOR signaling pathway in human A549 cells assessed as decrease in mTOR expression in presence of temsirolimus by Western blot analysis; format: cell-based
# A549 [9] = assay: Inhibition of Akt/mTOR signalling pathway in human A549 cells assessed as decrease in mTOR expression by Western blot analysis; format: cell-based; conditions: dose 10-30 µM
# BEAS-2B = assay: Cytotoxicity against human BEAS-2B cells assessed as inhibition of cell viability at 3 to 300 uM incubated for 48 hrs by CCK8 assay; format: toxicity, cell-based; conditions: dose 3-300 µM
# A549 [10] = assay: Induction of apoptosis in human A549 cells assessed as early apoptotic cells at 30 uM incubated for 24 hrs by Annexin V-FITC/PI staining based flow cytometric analysis (reference value: 0.44 %); format: functional
# A549 [11] = assay: Cell cycle arrest in human A549 cells assessed as downregulation of CDK4 expression at 10 to 30 uM by Western blot analysis; format: functional, cell-based; conditions: dose 10-30 µM
# A549 [12] = assay: Inhibition of Akt/mTOR signalling pathway in human A549 cells assessed as decrease in phosphorylated Akt expression by Western blot analysis; format: cell-based; conditions: dose 10-30 µM
# [13] = tested on: Gefitinib-resistant A549/G cell; assay: Inhibition of Akt/mTOR signaling pathway in human Gefitinib-resistant A549/G cell assessed as decrease in phosphorylated 4EBP1 expression in presence of gefitinib by Western blot analysis; format: cell-based
# NCI-H460 [14] = assay: Inhibition of Akt/mTOR signalling pathway in human NCI-H460 cells assessed as decrease in phosphorylated PRAS40 expression by Western blot analysis; format: cell-based; conditions: dose 10-30 µM
# A549 [15] = assay: Cell cycle arrest in human A549 cells assessed as accumulation of cells at G1 phase at 30 uM incubated for 24 hrs by PI staining based flow cytometric analysis (reference value: 56.42 +/- 1.36 %); format: functional
# A549 [16] = assay: Antiproliferative activity against human A549 cells assessed as reduction in cell viability incubated for 48 hrs by CCK8 assay; format: functional, cell-based; conditions: A549, 48 h
# NCI-H460 [17] = assay: Inhibition of Akt/mTOR signaling pathway in human NCI-H460 cells assessed as decrease in phosphorylated 4EBP1 expression in presence of temsirolimus by Western blot analysis; format: cell-based
# A549 [18] = assay: Induction of apoptosis in human A549 cells assessed as necrotic cells at 30 uM incubated for 24 hrs by Annexin V-FITC/PI staining based flow cytometric analysis (reference value: 0.97 %); format: functional
# NCI-H460 [19] = assay: Antiproliferative activity against human NCI-H460 cells assessed as inhibition of cell proliferation in presence of temsirolimus by CCK8 assay; format: functional, cell-based
# A549 [20] = assay: Induction of apoptosis in human A549 cells assessed as decrease in Bcl2 expression at 10 to 30 uM by Western blot analysis; format: functional, cell-based; conditions: dose 10-30 µM
# NCI-H460 [21] = assay: Cell cycle arrest in human NCI-H460 cells assessed as downregulation of CDK4 expression at 10 to 30 uM by Western blot analysis; format: functional, cell-based; conditions: dose 10-30 µM
# NCI-H460 [22] = assay: Induction of autophagy in human NCI-H460 cells assessed as increase in LC3-II expression at 10 to 30 uM incubated for 24 hrs by Western blot analysis; format: functional, cell-based; conditions: dose 10-30 µM
# A549 [23] = assay: Antitumor activity against human A549 cells xenografted in Balb/c nude mouse assessed as reduction in tumor growth rate at 7.5 to 15 mg/kg, ip administered for 14 days; format: functional, organism-based; conditions: dose 7.5-15 mg/kg, time 14.0 day
# NCI-H460 [24] = assay: Induction of apoptosis in human NCI-H460 cells assessed as upregulation of cleaved caspase 3 expression at 10 to 30 uM by Western blot analysis; format: functional, cell-based; conditions: dose 10-30 µM
# A549 [25] = assay: Cell cycle arrest in human A549 cells assessed as accumulation of cells at G1 phase at 10 uM incubated for 24 hrs by PI staining based flow cytometric analysis (reference value: 56.42 +/- 1.36 %); format: functional
# NCI-H460 [26] = assay: Induction of autophagy in human NCI-H460 cells assessed as increase in fluorescence intensity of anti-LC3 incubated for 48 hrs by immunofluorescence staining based analysis; format: functional, cell-based; conditions: dose 10-30 µM
# NCI-H460 [27] = assay: Inhibition of colony formation in human NCI-H460 cells at 10 to 30 uM incubated for 24 hrs by giemsa staining based analysis; format: functional, cell-based; conditions: dose 10-30 µM
# A549 [28] = assay: Inhibition of Akt/mTOR signalling pathway in human A549 cells assessed as decrease in phosphorylated P70 S6K expression by Western blot analysis; format: cell-based; conditions: dose 10-30 µM
# NCI-H460 [29] = assay: Induction of apoptosis in human NCI-H460 cells assessed as necrotic cells at 10 uM incubated for 24 hrs by Annexin V-FITC/PI staining based flow cytometric analysis (reference value: 0.68 %); format: functional
smiles,measurement,setting,value
N#C[Se]CCCNC(=O)c1cccnc1,inhibition,NCI-H460 [1],Dose-dependent-effect; Inhibitory Ability Of Compound Is Comparable To Temsirolimus
same,Activity,BGC-823,inactive
same,inhibition,A549 [2],Active
same,Activity,NCI-H460 [3],6.3%
same,Activity,A549 [4],8.48%
same,inhibition,A549 [5],Active
same,inhibition,A549 [6],Dose-dependent-effect; Inhibitory Ability Of Compound Is Comparable To Temsirolimus
same,Activity,NCI-H460 [7],Active; G1 Phase Cell Cycle Arrest Observed
same,inhibition,A549 [8],Active
same,inhibition,A549 [9],Dose-dependent-effect; Inhibitory Ability Of Compound Is Comparable To Temsirolimus
same,Activity,BEAS-2B,Toxic
same,Activity,A549 [10],4.58%
same,Activity,A549 [11],Active; G1 Phase Cell Cycle Arrest Observed
same,inhibition,A549 [12],Dose-dependent-effect; Inhibitory Ability Of Compound Is Comparable To Temsirolimus
same,inhibition,[13],Active
same,inhibition,NCI-H460 [14],Dose-dependent-effect; Inhibitory Ability Of Compound Is Comparable To Temsirolimus
same,Activity,A549 [15],78.51%
same,pIC50,A549 [16],4.81
same,inhibition,NCI-H460 [17],Active
same,Activity,A549 [18],5.12%
same,Activity,NCI-H460 [19],Active
same,Activity,A549 [20],Active
same,Activity,NCI-H460 [21],Active; G1 Phase Cell Cycle Arrest Observed
same,Activity,NCI-H460 [22],Active
same,Activity,A549 [23],Active; Comparable To 25 Mg/Kg Of Gemcitabine Hydrochloride
same,Activity,NCI-H460 [24],Active
same,Activity,A549 [25],75.43%
same,Activity,NCI-H460 [26],Dose-dependent-effect
same,inhibition,NCI-H460 [27],Active
same,inhibition,A549 [28],Dose-dependent-effect; Inhibitory Ability Of Compound Is Comparable To Temsirolimus
same,Activity,NCI-H460 [29],3.73%
